# In patent US6326390A (King Pharmaceuticals Reseach and Development, Inc., priority 1999, dated 2001):
# Like-named read-outs stand apart in the source and are kept apart here.
# Legend:
# [1] = tested on: SKN-MC cell line; assay: [^125 I]-ABMECA binding on cell membranes of tumor cell lines: SKN-MC
# Experimental: (§1) A series of binding experiments were performed on various tumor cell lines, using […] [^125 I]-ABMECA, with unspecific binding determined in the presence of 50 μM R-PIA or 200 μM NECA, on cell membranes of the cell lines. Specific binding was determined by substracting unspecific binding from total binding. The cell lines were the HL 60, NB4, SKN-MC, SKN-Be2C, SKN-SH and JURKAT cell lines.
# [2] = target: T1, human A3 receptors expressed in HEK 293 cells (Homo sapiens, UniProt P0DMS8); details: saturation, n=3
# T1 sequence (P0DMS8 1-318): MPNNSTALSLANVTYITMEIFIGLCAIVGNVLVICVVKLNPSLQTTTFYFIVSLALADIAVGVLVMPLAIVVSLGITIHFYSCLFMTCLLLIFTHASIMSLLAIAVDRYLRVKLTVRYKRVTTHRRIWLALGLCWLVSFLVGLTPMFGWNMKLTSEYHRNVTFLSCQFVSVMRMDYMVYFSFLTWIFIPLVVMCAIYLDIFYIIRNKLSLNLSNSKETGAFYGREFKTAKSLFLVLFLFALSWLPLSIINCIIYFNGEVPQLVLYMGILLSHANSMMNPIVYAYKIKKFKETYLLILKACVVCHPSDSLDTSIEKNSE
# Experimental: Incubation time was 60 min at 37° C., according to the results of previous time-course experiments. Bound and free radioactivity were separated by filtering the assay mixture through Whatman GF/B glass-fiber filters using a Brandel cell harvester. Non-specific binding was defined as binding in the presence of 50 μM R-PIA and was about 30% of total binding. The incubation mixture was diluted with 3 ml of ice-cold incubation buffer, rapidly vacuum filtered and the filter was washed three times with 3 ml of incubation buffer. The filter bound radioactivity was counted in a Beckman gamma 5500B γ counter. The protein concentration can be determined according to a Bio-Rad method (3) with bovine albumin as reference standard.
# Non-specific binding was defined in the presence of 50 μM R-PIA and was about 30% of total binding. Incubation time was 60 min at 37° C., according to the results of previous time-course experiments. Bound and free radioactivity was separated by filtering the assay mixture through Whatman GF/B glass-fiber filters using a Brandel cell harvester.
# [3] = tested on: SKN-SH cell line; assay: [^125 I]-ABMECA binding on cell membranes of tumor cell lines: SKN-SH
# Experimental: as §1
# [4] = tested on: HL 60 cell line; assay: [^125 I]-ABMECA binding on cell membranes of tumor cell lines: HL 60; design: species or system human
# Experimental: as §1
# [5] = target: T2, human A3 receptors expressed in the JURKAT cell line (Homo sapiens, UniProt P0DMS8); details: Jurkat cell membranes, [^125 I]AB-MECA
# T2 sequence (P0DMS8 1-318): T1 sequence (P0DMS8 1-318)
# Experimental: Jurkat cell lines appeared to provide the best results of the cell lines tested. A saturation experiment was performed using Jurkat cell lines at 37° C., with a one hour incubation period, using [^125 I]-ABMECA (0.125-1.5 nM), with nonspecific binding measured using RPIA (50 μM).
# [6] = tested on: NB4 cell line; assay: [^125 I]-ABMECA binding on cell membranes of tumor cell lines: NB4
# Experimental: as §1
# [7] = tested on: SKN-Be2C cell line; assay: [^125 I]-ABMECA binding on cell membranes of tumor cell lines: SKN-Be2C
# Experimental: as §1
# [8] = tested on: JURKAT cell line; assay: [^125 I]-ABMECA binding on cell membranes of tumor cell lines: JURKAT; design: species or system human
# Experimental: as §1
# [9] = tested on: cerebral ischemia; details: chronic administration; cited from earlier work
# [10] = target: T3, adenosine A3 receptors in Jurkat cell membranes (Homo sapiens, UniProt P0DMS8); assay: Saturation of Compound 1 binding to A3 receptors in Jurkat cell membranes
# T3 construct: characterization of A3 receptors in some human tumor cell lines; endogenous in cells; host or cells: Jurkat (human T-cell leukaemia), membranes
# T3 sequence (P0DMS8 1-318): T1 sequence (P0DMS8 1-318)
# [11] = target: T4, rat brain A1 adenosine receptor (Rattus norvegicus, UniProt P25099); assay: Rat A1 adenosine receptor binding assay, displacement of [^3 H]CHA; details: rat brain membranes, [^3 H]CHA 1 nM; read-out: rA1 (Ki)
# T4 construct: membranes of rat brain; from tissue; host or cells: whole brain membranes of male Wistar rats
# T4 sequence (P25099 1-326): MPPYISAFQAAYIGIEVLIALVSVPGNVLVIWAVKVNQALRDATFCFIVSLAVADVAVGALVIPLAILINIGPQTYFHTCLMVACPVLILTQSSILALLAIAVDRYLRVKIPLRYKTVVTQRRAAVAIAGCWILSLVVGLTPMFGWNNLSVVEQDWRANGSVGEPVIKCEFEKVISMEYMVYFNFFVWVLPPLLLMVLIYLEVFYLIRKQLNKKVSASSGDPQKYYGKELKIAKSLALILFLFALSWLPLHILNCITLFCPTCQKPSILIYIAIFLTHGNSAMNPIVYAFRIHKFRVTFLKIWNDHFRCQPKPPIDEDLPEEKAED
# Experimental: Male Wistar rats (200-250 g) were decapitated and the whole brain and striatum dissected on ice. […] After 30 min incubation at 37° C., the membranes were centrifuged and pellets were stored at -80° C. Prior to freezing, an aliquot of homogenate was removed for protein assay with bovine albumin as reference standard. Binding assays were performed on rat brain and striatum membranes respectively, in the presence of 10 mM MgCl2 at 25° C. All buffer solutions were adjusted to maintain a constant pH of 7.4.
# Separation of bound from free radio ligand was performed by rapid filtration through Whatman GF/B filters which were washed three times with ice-cold buffer. Filter bound radioactivity was measured by scintillation spectrometry after addition of 5 mL of Aquassure. […] Incubation time ranged from 150 min. at 0° C. to 75 min at 30° C. according to the results of previous time-course experiments. Ki values were calculated from the Cheng-Prusoff equation. All binding data were analyzed using the nonlinear regression curve-fitting computer program LIGAND.
# [12] = target: T5, adenosine A3 receptors in HL60 membranes (Homo sapiens, UniProt P0DMS8); assay: Saturation of Compound 1 binding to A3 receptors in HL60 membranes
# T5 construct: characterization of A3 receptors in some human tumor cell lines; endogenous in cells; host or cells: HL60 (human promyelocytic leukaemia), membranes
# T5 sequence (P0DMS8 1-318): T1 sequence (P0DMS8 1-318)
compound,measurement,setting,value
"CNC(=O)[C@H]1O[C@@H](n2cnc3c(NCc4ccc(N)c([125I])c4)ncnc32)[C@H](O)[C@@H]1O [[^125 I]AB-MECA, N^6-(4-amino-3-iodobenzyl)-5'-(N-methylcarbamoyl)adenosine]",Percent Specific Binding,[1]; SKN-MC,17%
same,Total Binding,[1]; SKN-MC cell membranes,7528
same,Unspecific Binding,"[1]; SKN-MC, 50 μM R-PIA or 200 μM NECA",6220
same,Specific Binding,"[1]; SKN-MC, total minus unspecific",1308 cpm
same,Bmax value,[2],62±1 fmol/mg protein
same,Percent Specific Binding,[3]; SKN-SH,3%
same,Total Binding,[3]; SKN-SH cell membranes,2671
same,Unspecific Binding,"[3]; SKN-SH, 50 μM R-PIA or 200 μM NECA",2580
same,Specific Binding,"[3]; SKN-SH, total minus unspecific",91 cpm
same,Percent Specific Binding,[4]; HL 60,20%
same,Unspecific Binding,"[4]; HL 60, 50 μM R-PIA or 200 μM NECA",2791
same,Specific Binding,"[4]; HL 60, total minus unspecific",693 cpm
same,Total Binding,[4]; HL 60 cell membranes,3484
same,Bmax (density of A3 receptor),[5],approximately 300 fmol/mg protein
same,Bmax (density of A3 receptor),[5]; listed as [^125 I]-ABMECA,290 fmol/mg protein
same,Percent Specific Binding,[6]; NB4,19%
same,Unspecific Binding,"[6]; NB4, 50 μM R-PIA or 200 μM NECA",2740
same,Specific Binding,"[6]; NB4, total minus unspecific",637 cpm
same,Total Binding,[6]; NB4 cell membranes,3377
same,Percent Specific Binding,[7]; SKN-Be2C,24%
same,Total Binding,[7]; SKN-Be2C cell membranes,6000
same,Unspecific Binding,"[7]; SKN-Be2C, 50 μM R-PIA or 200 μM NECA",4585
same,Specific Binding,"[7]; SKN-Be2C, total minus unspecific",1415 cpm
same,Percent Specific Binding,[8]; JURKAT,38%
same,Total Binding,[8]; JURKAT cell membranes,7599
same,Unspecific Binding,"[8]; JURKAT, 50 μM R-PIA or 200 μM NECA",4753
same,Specific Binding,"[8]; JURKAT, total minus unspecific",2846 cpm
CNC(=O)[C@H]1O[C@@H](n2cnc3c(NCc4cccc(I)c4)ncnc32)[C@H](O)[C@@H]1O [IB-MECA],protection against cerebral ischemia,[9],protects against cerebral ischemia
"CCCn1cc2c(nc(NC(=O)Nc3ccc(OC)cc3)n3nc(-c4ccco4)nc23)n1 [Compound 1, 5-[[(4-Methoxyphenyl)amino]carbonyl]amino-8-propyl-2-(2-furyl)-pyrazolo[4,3-e] 1,2,4-triazolo[1,5-c]pyrimidine]",density of adenosine A3 receptors detected,"[10]; Jurkat cells, tritiated analogue of Compound 1",approximately 1300 fmol/mg protein
same,Bmax value,"[10]; Jurkat membranes, 0.2 to 15 nM, n=3",1.30±0.03 pmol/mg protein
same,Ki,[11],> 10 µM
same,density of adenosine A3 receptors detected,"[12]; HL60 cells, tritiated analogue of Compound 1",~650 fmol/mg protein
same,Bmax value,"[12]; HL60 membranes, 0.1 to 10 nM, n=3",626±42 fmol/mg protein
